As usually defined, the EC50 is the concentration that produces a half-maximal response. Lower therefore signals higher potency in that assay.

The target of experiment [1] is human CYP11B2 (Homo sapiens (Human), UniProt P19099). Kind of experiment: G-402 cellular enzyme assay, human CYP11B2 (aldosterone release, HTRF). In kind it is cell-based. To be noted: G-402 cells expressing human CYP11B2; 1 μM Deoxycorticosterone. An excerpt:
(§1) Herein we identified the use of the G-402 cell line as a host cell to ectopically express (transiently or stably) enzymes of the CYP11 family. Specifically we developed stable G-402 cells expressing ectopically human CYP11B1, human CYP11B2, human CYP11A1, cynmolgus CYP11B1 or cynomolgus CYP11B2 enzyme activity. Importantly the identified cell line G-402 expresses co-factors (adrenodoxin and adrenodoxin reductase) important for the activity of the CYP11 family and no relevant enzyme activity of the CYP11 family (in comparison to H295R cells) was detected in these cells. Therefore the G-402 cell line is uniquely suited as a host cell for the ectopic expression of enzymes from the CYP11 family.
(§2) G-402 cells can be obtained from ATCC (CRL-1440) and were originally derived from a renal leiomyoblastoma.
(§3) The expression plasmids contains the ORF for either human/cyno CYP11B1 or CYP11B2 under the control of a suitable promoter (CMV-promoter) and a suitable resistance marker (neomycin). Using standard techniques the expression plasmid is transfected into G-402 cells and these cells are then selected for expressing the given resistance markers. Individual cell-clones are then selected and assessed for displaying the desired enzymatic activity using 11-Deoxycorticosterone (Cyp11B2) or 11-Deoxycortisol (Cyp11B1) as a substrate.
(§4) G-402 cells expressing CYP11 constructs were established as described above and maintained in McCoy's 5a Medium Modified, ATCC Catalog No. 30-2007 containing 10% FCS and 400 μg/ml G418 (Geneticin) at 37° C. under an atmosphere of 5% CO2/95% air. Cellular enzyme assays were performed in DMEM/F12 medium containing 2.5% charcoal treated FCS and appropriate concentration of substrate (0.3-10 uM 11-Deoxycorticosterone, 11-Deoxycortisol or Corticosterone). For assaying enzymatic activity, cells were plated onto 96 well plates and incubated for 16 h. An aliquot of the supernatant is then transferred and analyzed for the concentration of the expected product (Aldosterone for CYP11B2; Cortisol for CYP11B1). The concentrations of these steroids can be determined using HTRF assays from CisBio analyzing either Aldosterone or Cortisol.
(§5) Inhibition of the release of produced steroids can be used as a measure of the respective enzyme inhibition by test compounds added during the cellular enzyme assay. The dose dependent inhibition of enzymatic activity by a compound is calculated by means of plotting added inhibitor concentrations (x-axes) vs. measured steroid/product level (y-axes). The inhibition is then calculated by fitting the following 4-parameter sigmoidal function (Morgan-Mercer-Flodin (MMF) model) to the raw data points using the least squares method:
(§6) [formula] wherein, A is the maximum y value, B is the EC50 factor determined using XLFit, C is the minimum y value and D is the slope value.
(§7) EC50 values for compounds claimed herein were tested with the G402-based assay system described. Cyp11B2 enzyme activity was tested in presence of 1 μM Deoxycorticosterone and variable amounts of inhibitors; Cyp11B1 enzyme activity was tested in presence of 1 μM Deoxycortisol and variable amounts of inhibitors.

Experiment [2] deals with human CYP11B1 (Homo sapiens (Human), UniProt P15538). The experiment is described as follows: G-402 cellular enzyme assay, human CYP11B1 (cortisol release, HTRF). The format is cell-based. To be noted: G-402 cells expressing human CYP11B1; 1 μM Deoxycortisol.
Chain of human CYP11B1 (P15538 25-503): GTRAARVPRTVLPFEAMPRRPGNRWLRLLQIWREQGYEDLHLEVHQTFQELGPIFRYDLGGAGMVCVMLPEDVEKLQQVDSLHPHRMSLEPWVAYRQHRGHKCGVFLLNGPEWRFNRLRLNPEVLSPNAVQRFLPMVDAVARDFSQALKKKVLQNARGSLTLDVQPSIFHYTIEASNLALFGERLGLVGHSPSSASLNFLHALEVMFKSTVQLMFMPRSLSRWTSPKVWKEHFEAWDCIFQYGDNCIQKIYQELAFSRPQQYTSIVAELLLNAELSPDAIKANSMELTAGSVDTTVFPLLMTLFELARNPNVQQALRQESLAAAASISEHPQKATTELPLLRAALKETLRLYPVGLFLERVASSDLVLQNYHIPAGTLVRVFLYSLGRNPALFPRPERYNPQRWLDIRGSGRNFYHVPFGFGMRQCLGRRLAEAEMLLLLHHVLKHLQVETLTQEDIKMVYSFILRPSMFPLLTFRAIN
Description: as §1, §2, §3, §4, §5, §6, §7

Chain of human CYP11B2 (P19099 25-503): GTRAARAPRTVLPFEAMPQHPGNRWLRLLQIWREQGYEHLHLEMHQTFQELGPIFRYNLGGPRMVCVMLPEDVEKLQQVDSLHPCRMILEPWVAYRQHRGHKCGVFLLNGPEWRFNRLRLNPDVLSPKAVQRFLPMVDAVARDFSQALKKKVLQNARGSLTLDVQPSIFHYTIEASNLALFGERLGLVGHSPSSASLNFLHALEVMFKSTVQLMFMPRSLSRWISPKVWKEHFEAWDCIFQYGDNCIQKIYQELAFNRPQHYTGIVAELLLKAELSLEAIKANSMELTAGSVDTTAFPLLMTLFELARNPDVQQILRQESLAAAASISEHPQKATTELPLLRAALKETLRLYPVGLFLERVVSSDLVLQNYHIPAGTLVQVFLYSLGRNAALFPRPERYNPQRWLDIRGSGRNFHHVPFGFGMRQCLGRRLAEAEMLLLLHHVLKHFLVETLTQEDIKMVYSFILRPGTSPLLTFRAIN

Take `Cn1cc(C(=O)N2CCCC(c3[nH]ncc3Oc3ccc(C#N)cc3)C2)cn1` (racemic) [Example 63, (rac)-4-[[3-[1-(1-Methylpyrazole-4-carbonyl)piperidin-3-yl]-1H-pyrazol-4-yl]oxy]benzonitrile]: the EC50 in experiment [1] came to 150 nM; in experiment [2], 6470 nM.

As to `N#Cc1ccc(Oc2cn[nH]c2-c2cccc(OCc3cccnc3)c2)cc1` [Example 51, 4-[[3-[3-(Pyridin-3-ylmethoxy)phenyl]-1H-pyrazol-4-yl]oxy]benzonitrile], the EC50 came out at 9.5 nM in experiment [1] and 51.3 nM in experiment [2].

In the case of `N#Cc1ccc(Oc2cn[nH]c2-c2cccc(Cl)c2)cc1` [Example 32, 4-[[5-(3-Chlorophenyl)-1H-pyrazol-4-yl]oxy]benzonitrile], the results for the EC50 in experiment [1] and in experiment [2] were 45.8 nM and 542 nM, respectively.

For `N#Cc1ccc(Oc2cn[nH]c2-c2cccc(O)c2F)cc1` [Example 84, 4-[[3-(2-Fluoro-3-hydroxyphenyl)-1H-pyrazol-4-yl]oxy]benzonitrile], the EC50 in experiment [1] was determined as 0.4 nM; in experiment [2], 17.3 nM.

On to `N#Cc1ccc(Oc2cn[nH]c2-c2cccc(OCc3ccncc3)c2)cc1` [Example 54, 4-[[3-[3-(Pyridin-4-ylmethoxy)phenyl]-1H-pyrazol-4-yl]oxy]benzonitrile], for which the figures for the EC50 in experiment [1] and in experiment [2] were 3.5 nM and 46.5 nM, respectively.

On to `N#Cc1ccc(Oc2cn[nH]c2-c2cccc(CO)c2)cc1` [Example 49, 4-[[3-[3-(Hydroxymethyl)phenyl]-1H-pyrazol-4-yl]oxy]benzonitrile], for which the EC50 stood at 13.2 nM in experiment [1] and 85 nM in experiment [2].

On to `N#Cc1ccc(Oc2cn[nH]c2-c2ccccc2Cn2ccc(=O)cc2)cc1` [Example 83, 4-[[3-[2-[(4-Oxopyridin-1-yl)methyl]phenyl]-1H-pyrazol-4-yl]oxy]benzonitrile], for which the EC50 in experiment [1] came out at 321 nM; in experiment [2], 2880 nM.

`FC(F)(F)Oc1ccccc1-c1[nH]ncc1Oc1ccc(Cl)cc1` [Example 7, 4-(4-Chlorophenoxy)-5-[2-(trifluoromethoxy)phenyl]-1H-pyrazole]: the values for the EC50 in experiment [1] and in experiment [2] were 24.4 nM and 861 nM, respectively.

In the case of `N#Cc1ccc(Oc2cn[nH]c2-c2cccc(OCc3ccccc3)c2)cc1` [Example 36, 4-[[5-(3-Phenylmethoxyphenyl)-1H-pyrazol-4-yl]oxy]benzonitrile], the EC50 came to 16.8 nM in experiment [1] and 52.9 nM in experiment [2].

Take `COc1ccccc1CCc1[nH]ncc1Oc1ccc(C#N)cc1` [Example 60, 4-[[3-[2-(2-Methoxyphenyl)ethyl]-1H-pyrazol-4-yl]oxy]benzonitrile]: the values for the EC50 in experiment [1] and in experiment [2] were 54 nM and 1000 nM, respectively.

As for `COc1ccccc1-c1[nH]ncc1Oc1ccc(Cl)cc1` [Example 4, 4-(4-Chlorophenoxy)-3-(2-methoxyphenyl)-1H-pyrazole], the EC50 in experiment [1] stood at 0.1 nM; in experiment [2] it was 1.3 nM.

For `CS(=O)(=O)c1ccc(-c2[nH]ncc2Oc2ccc(Cl)cc2)cc1` [Example 12, 4-(4-Chlorophenoxy)-5-(4-methylsulfonylphenyl)-1H-pyrazole], the results for the half-maximal effective concentration (EC50) in experiment [1] and in experiment [2] were 26.4 nM and 600 nM, respectively.

With `Clc1ccc(Oc2cn[nH]c2-c2ccccc2Cl)cc1` [Example 6, 4-(4-Chlorophenoxy)-5-(2-chlorophenyl)-1H-pyrazole], the EC50 was 2.6 nM in experiment [1] and 51.8 nM in experiment [2].

On to `N#Cc1ccc(Oc2cn[nH]c2-c2cccc(OCc3ccnc(Cl)c3)c2F)cc1` [Example 86, 4-[[3-[3-[(2-Chloropyridin-4-yl)methoxy]-2-fluorophenyl]-1H-pyrazol-4-yl]oxy]benzonitrile], for which the EC50 is 4.3 nM in experiment [1] and 28 nM in experiment [2].

In the case of `CCOC(=O)c1ccccc1-c1[nH]ncc1Oc1ccc(C#N)cc1` [Example 39, Ethyl 2-[4-(4-cyanophenoxy)-1H-pyrazol-3-yl]benzoate], the EC50 in experiment [1] is 34.2 nM; in experiment [2], 1160 nM.

With `N#Cc1ccc(Oc2cn[nH]c2-c2cnn(Cc3ccccc3)c2)cc1` [Example 68, 4-[[5-(1-Benzylpyrazol-4-yl)-1H-pyrazol-4-yl]oxy]benzonitrile], the EC50 in experiment [1] was 439 nM; in experiment [2], 2400 nM.

Regarding `N#Cc1ccc(Oc2cn[nH]c2-c2cccc(C(=O)N3CCOCC3)c2)cc1` [Example 45, 4-[[3-[3-(Morpholine-4-carbonyl)phenyl]-1H-pyrazol-4-yl]oxy]benzonitrile], the values for the EC50 in experiment [1] and in experiment [2] were 397 nM and 2400 nM, respectively.

On to `N#Cc1ccc(Oc2cn[nH]c2C2CCCN(C(=O)c3cccnc3)C2)cc1` (racemic) [Example 64, (rac)-4-[[3-[1-(Pyridine-3-carbonyl)piperidin-3-yl]-1H-pyrazol-4-yl]oxy]benzonitrile], for which the EC50 in experiment [1] was determined as 405 nM; in experiment [2], 8160 nM.

With `CC(=O)N1CCC(Oc2cccc(-c3[nH]ncc3Oc3ccc(C#N)cc3)c2)C1` (racemic) [Example 58, (rac)-4-[[3-[3-(1-Acetylpyrrolidin-3-yl)oxyphenyl]-1H-pyrazol-4-yl]oxy]benzonitrile], the EC50 in experiment [1] amounted to 215 nM; in experiment [2] it was 1510 nM.

Consider `FC(F)(F)c1ccc(-c2[nH]ncc2Oc2ccc(Cl)cc2)cc1` [Example 14, 4-(4-Chlorophenoxy)-5-[4-(trifluoromethyl)phenyl]-1H-pyrazole], for which the EC50 in experiment [1] turned out to be 2030 nM; in experiment [2] it was 2670 nM.

For `Cn1cc(C(=O)N2CCN(Cc3[nH]ncc3Oc3ccc(C#N)cc3)CC2)cn1` [Example 88, 4-[[5-[[4-(1-Methylpyrazole-4-carbonyl)piperazin-1-yl]methyl]-1H-pyrazol-4-yl]oxy]benzonitrile], the EC50 in experiment [1] was determined as 147 nM; in experiment [2], 25900 nM.

Turning to `Cn1cc(COc2cccc(-c3[nH]ncc3Oc3ccc(C#N)cc3)c2)cn1` [Example 56, 4-[[3-[3-[(1-Methylpyrazol-4-yl)methoxy]phenyl]-1H-pyrazol-4-yl]oxy]benzonitrile], the values for the EC50 in experiment [1] and in experiment [2] were 9.5 nM and 93.6 nM, respectively.

Consider `Cc1ncc(-c2[nH]ncc2Oc2ccc(C#N)cc2)s1` [Example 66, 4-[[3-(2-Methyl-1,3-thiazol-5-yl)-1H-pyrazol-4-yl]oxy]benzonitrile], for which the EC50 in experiment [1] turned out to be 68.5 nM; in experiment [2], 2060 nM.

Consider `Fc1cc(Cl)ccc1-c1[nH]ncc1Oc1ccc(Cl)cc1` [Example 11, 5-(4-Chloro-2-fluorophenyl)-4-(4-chlorophenoxy)-1H-pyrazole], for which the EC50 in experiment [1] was 45.8 nM; in experiment [2], 433 nM.

For `N#Cc1ccc(Oc2cn[nH]c2-c2cccc(F)c2Cl)cc1` [Example 35, 4-[[5-(2-Chloro-3-fluorophenyl)-1H-pyrazol-4-yl]oxy]benzonitrile], the EC50 was 1.5 nM in experiment [1] and 68.6 nM in experiment [2].

Consider `N#Cc1ccc(Oc2cn[nH]c2-c2ccccc2OCc2ccccc2)cc1` [Example 41, 4-[[5-(2-Phenylmethoxyphenyl)-1H-pyrazol-4-yl]oxy]benzonitrile], for which the results for the EC50 in experiment [1] and in experiment [2] were 0.1 nM and 0.5 nM, respectively.

For the molecule `N#Cc1ccc(Oc2cn[nH]c2-c2cccc(Cl)c2F)cc1` [Example 30, 4-[[5-(3-Chloro-2-fluorophenyl)-1H-pyrazol-4-yl]oxy]benzonitrile], the EC50 in experiment [1] turned out to be 8 nM; in experiment [2] it was 191 nM.

With `N#Cc1ccc(Oc2cn[nH]c2-c2cccc(C[n+]3cccc([O-])c3)c2)cc1` [Example 71, 1-[[3-[4-(4-Cyanophenoxy)-1H-pyrazol-3-yl]phenyl]methyl]pyridin-1-ium-3-olate], the EC50 in experiment [1] amounted to 656 nM; in experiment [2] it was 5880 nM.

As for `CS(=O)(=O)c1ccc(-c2[nH]ncc2Oc2ccc(C#N)cc2)c(Cl)c1` [Example 43, 4-[[5-(2-Chloro-4-methylsulfonylphenyl)-1H-pyrazol-4-yl]oxy]benzonitrile], the values for the EC50 in experiment [1] and in experiment [2] were 41.6 nM and 558 nM, respectively.

For `Fc1ccccc1-c1[nH]ncc1Oc1ccc(Cl)cc1` [Example 9, 4-(4-Chlorophenoxy)-5-(2-fluorophenyl)-1H-pyrazole], the EC50 was found to be 7.9 nM in experiment [1] and 167 nM in experiment [2].

The values are drawn from patent publication US9790217B2, “Pyridinyloxy- and phenyloxy-pyrazolyl compounds” (Hoffmann-La Roche Inc., priority 2014, dated 2017).
